The record followed here is patent publication US20250268854A1, “2-AMINO-5,5-DIMETHYLHEXANOIC ACID DERIVATIVES AS SORTILIN MODULATORS FOR USE IN THE TREATMENT OF DISEASE OF THE CENTRAL NERVOUS SYSTEM” (c/o Vesper Bio ApS, priority 2021, published 2025).

The structures appear in SMILES notation. Counter-ions that a name gives are not always drawn.

Sequence of h-Sortilin (Q99523 78-831): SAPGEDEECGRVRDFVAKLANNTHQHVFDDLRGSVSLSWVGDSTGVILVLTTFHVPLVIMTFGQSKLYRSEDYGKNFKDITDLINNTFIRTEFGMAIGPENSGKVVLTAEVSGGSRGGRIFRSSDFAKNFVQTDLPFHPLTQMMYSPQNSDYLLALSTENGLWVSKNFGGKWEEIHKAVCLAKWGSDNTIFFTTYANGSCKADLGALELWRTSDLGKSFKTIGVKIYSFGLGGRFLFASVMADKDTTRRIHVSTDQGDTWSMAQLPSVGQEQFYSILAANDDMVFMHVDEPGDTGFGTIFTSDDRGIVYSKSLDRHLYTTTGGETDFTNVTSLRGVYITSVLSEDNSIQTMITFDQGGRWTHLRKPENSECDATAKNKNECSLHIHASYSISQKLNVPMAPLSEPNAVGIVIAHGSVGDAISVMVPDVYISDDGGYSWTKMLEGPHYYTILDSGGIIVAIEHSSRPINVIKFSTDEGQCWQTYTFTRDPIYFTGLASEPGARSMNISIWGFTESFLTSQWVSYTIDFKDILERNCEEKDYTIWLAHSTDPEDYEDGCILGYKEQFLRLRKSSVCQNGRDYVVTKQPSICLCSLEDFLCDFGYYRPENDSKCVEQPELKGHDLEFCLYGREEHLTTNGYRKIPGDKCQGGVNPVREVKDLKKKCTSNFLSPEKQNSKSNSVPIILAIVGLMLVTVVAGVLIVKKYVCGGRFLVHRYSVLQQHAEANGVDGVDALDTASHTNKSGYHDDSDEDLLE

This test addresses h-Sortilin (Homo sapiens (Human), UniProt Q99523). In words: Neurotensin (NTS) scintillation proximity assay (SPA): displacement of [3H]-neurotensin binding. To be noted: 150 nM 6his-Sortilin, 5 nM [3H]-Neurotensin; average of at least 2 determinations. On the procedure:
The exemplified compounds of the invention were tested in a Neurotensin (NTS) scintillation proximity assay (SPA). NTS, which is a 13 amino acid neuropeptide, is a sortilin ligand. The IC50 is a measure of the amount of the compound required to inhibit the binding of NTS to sortilin by 50%. […] Compound affinity was determined by measuring the displacement of [^3H]-neurotensin binding to h-Sortilin in SPA format. […] IC50 values were calculated by nonlinear regression using the sigmoid concentration-response (variable slope) using CDD Vault software. All values reported are average of at least 2 determinations.
(In general: In a scintillation proximity assay essentially only radioactivity close to the scintillant gives light.)
In general, IC50 refers to the point on the concentration scale where inhibition reaches its midpoint. A low value points to greater potency. As for `Cc1cc(=O)oc2c(CN[C@@H](CCC(C)(C)C)C(=O)O)c(O)ccc12` [Example 1, (S)-2-(((7-hydroxy-4-methyl-2-oxo-2H-chromen-8-yl)methyl)amino)-5,5-dimethylhexanoic acid], the IC50 was 75 nM.
`Cc1cc2cccc(CN[C@@H](CCC(C)(C)C)C(=O)O)c2cn1` [Example 4, (2S)-5,5-dimethyl-2-{[(3-methylisoquinolin-8-yl)methyl]amino}hexanoic acid] showed an IC50 of 660 nM. Against the preceding molecule, the IC50 is about 8.8-fold higher.
`CC(C)(C)CC[C@H](NCc1cccc2ccncc12)C(=O)O` [Example 7, (2S)-2-{[(isoquinolin-8-yl)methyl]amino}-5,5-dimethylhexanoic acid] came in with a half-inhibitory concentration (IC50) of 950 nM.
In the case of `CC(C)(C)CC[C@H](NC(c1ccccc1)c1ccccc1)C(=O)O` [Example 8, (S)-2-(benzhydrylamino)-5,5-dimethylhexanoic acid hydrochloride] it was 270 nM; in that of `CC(C)(C)CC[C@H](NCc1ccccc1OC(F)(F)F)C(=O)O` [Example 10, (2S)-5,5-dimethyl-2-({[2-(trifluoromethoxy)phenyl]methyl}amino)hexanoic acid], 975 nM; in that of `CC(C)(C)CC[C@H](NCc1ccccc1F)C(=O)O` [Example 11, (2S)-2-{[(2-fluorophenyl)methyl]amino}-5,5-dimethylhexanoic acid], 1830 nM.
For `CC(C)(C)CC[C@H](NCc1c(F)cccc1F)C(=O)O` [Example 12, (2S)-2-{[(2,6-difluorophenyl)methyl]amino}-5,5-dimethylhexanoic acid] the value was 2840 nM.
Consider `CC(C)(C)CC[C@H](NCc1ccccc1C(F)(F)F)C(=O)O` [Example 13, (2S)-5,5-dimethyl-2-({[2-(trifluoromethyl)phenyl]methyl}amino)hexanoic acid], for which the half-maximal inhibitory concentration (IC50) turned out to be 1020 nM.
For `C[C@@H](N[C@@H](CCC(C)(C)C)C(=O)O)c1ccccc1` [Example 14, (S)-5,5-dimethyl-2-(((R)-1-phenylethyl)amino)hexanoic acid hydrochloride] the value was 610 nM; for `C[C@H](N[C@@H](CCC(C)(C)C)C(=O)O)c1ccccc1` [Example 15, (S)-5,5-dimethyl-2-(((S)-1-phenylethyl)amino)hexanoic acid hydrochloride], 3480 nM; for `CC(C)(C)CC[C@H](N[C@@H](c1ccccc1)C(F)(F)F)C(=O)O` [Example 16, (S)-5,5-dimethyl-2-(((S)-2,2,2-trifluoro-1-phenylethyl)amino)hexanoic acid], 1480 nM.
For `CC(C)(C)CC[C@H](N[C@@H](c1ccccc1)C(F)F)C(=O)O` [Example 17, (2S)-2-{[(1S)-2,2-difluoro-1-phenylethyl]amino}-5,5-dimethylhexanoic acid] the value was 1610 nM.
The molecule `CC(C)(C)CC[C@H](N[C@H](c1ccccc1)C(F)(F)F)C(=O)O` [Example 18, (S)-5,5-dimethyl-2-(((R)-2,2,2-trifluoro-1-phenylethyl)amino)hexanoic acid] had an IC50 of 725 nM.
Take `CC(C)(C)CC[C@H](N[C@H](c1ccccc1)C(F)F)C(=O)O` [Example 19, (2S)-2-{[(1R)-2,2-difluoro-1-phenylethyl]amino}-5,5-dimethylhexanoic acid]: the half-inhibitory concentration (IC50) was 565 nM.
For `CC(C)(C)CC[C@H](NC1=Nc2ccccc2Oc2ccccc21)C(=O)O` [Example 20, (2S)-5,5-dimethyl-2-({2-oxa-9-azatricyclo[9.4.0.0^3,8]pentadeca-1(11),3(8),4,6,9,12,14-heptaen-10-yl}amino)hexanoic acid] the value was 1490 nM; for `CC(C)(C)CC[C@H](NCc1cccc(CO)c1)C(=O)O` [Example 25, (2S)-2-({[3-(hydroxymethyl)phenyl]methyl}amino)-5,5-dimethylhexanoic acid], 1380 nM.
In the case of `CC(C)(C)CC[C@H](NCc1cc(Cl)cc(Cl)c1)C(=O)O` [Example 32, (2S)-2-{[(3,5-dichlorophenyl)methyl]amino}-5,5-dimethylhexanoic acid] it was 840 nM; in that of `CC(C)(C)CC[C@H](NCc1ccc2ccccc2n1)C(=O)O` [Example 36, (2S)-5,5-dimethyl-2-{[(quinolin-2-yl)methyl]amino}hexanoic acid], 1600 nM; in that of `COc1ccc(CN[C@@H](CCC(C)(C)C)C(=O)O)cc1F` [Example 37, (2S)-2-{[(3-fluoro-4-methoxyphenyl)methyl]amino}-5,5-dimethylhexanoic acid], 710 nM.
In the case of `CC(C)(C)CC[C@H](NCc1cccc2c1CCCC2)C(=O)O` [Example 39, (2S)-5,5-dimethyl-2-{[(5,6,7,8-tetrahydronaphthalen-1-yl)methyl]amino}hexanoic acid] it was 360 nM; in that of `CC(C)(C)CC[C@H](NCc1ccc2nccnc2c1)C(=O)O` [Example 42, (2S)-5,5-dimethyl-2-{[(quinoxalin-6-yl)methyl]amino}hexanoic acid], 400 nM; in that of `CC(C)(C)CC[C@H](NCc1cnc2[nH]ccc2c1)C(=O)O` [Example 43, (2S)-5,5-dimethyl-2-[({1H-pyrrolo[2,3-b]pyridin-5-yl}methyl)amino]hexanoic acid], 470 nM.
`CC(C)(C)CC[C@H](NCc1ccnc2[nH]ccc12)C(=O)O` [Example 44, (2S)-5,5-dimethyl-2-[({1H-pyrrolo[2,3-b]pyridin-4-yl}methyl)amino]hexanoic acid]: the IC50 was found to be 850 nM. Compared with the last molecule, the IC50 is about 1.8-fold higher.
For `CC(C)(C)CC[C@H](NCc1cccc2cccnc12)C(=O)O` [Example 47, (2S)-5,5-dimethyl-2-{[(quinolin-8-yl)methyl]amino}hexanoic acid] the value was 1950 nM; for `CC(C)(C)CC[C@H](NCc1cccc2ncccc12)C(=O)O` [Example 48, (2S)-5,5-dimethyl-2-{[(quinolin-5-yl)methyl]amino}hexanoic acid], 1060 nM.
For `COc1ccc2ccccc2c1CN[C@@H](CCC(C)(C)C)C(=O)O` [Example 49, (2S)-2-{[(2-methoxynaphthalen-1-yl)methyl]amino}-5,5-dimethylhexanoic acid] the value was 1990 nM; for `CC(C)(C)CC[C@H](NCc1ccc2scnc2c1)C(=O)O` [Example 51, (2S)-2-{[(1,3-benzothiazol-5-yl)methyl]amino}-5,5-dimethylhexanoic acid], 320 nM; for `Cn1nccc1CN[C@@H](CCC(C)(C)C)C(=O)O` [Example 52, (2S)-5,5-dimethyl-2-{[(1-methyl-1H-pyrazol-5-yl)methyl]amino}hexanoic acid], 1560 nM.
For `CC(C)(C)CC[C@H](NCc1ccc2ncsc2c1)C(=O)O` [Example 53, (2S)-2-{[(1,3-benzothiazol-6-yl)methyl]amino}-5,5-dimethylhexanoic acid], the IC50 came out at 590 nM.
Regarding `Cn1ncc2ccc(CN[C@@H](CCC(C)(C)C)C(=O)O)cc21` [Example 54, (2S)-5,5-dimethyl-2-{[(1-methyl-1H-indazol-6-yl)methyl]amino}hexanoic acid], the IC50 turned out to be 870 nM.
In the case of `CC(C)(C)CC[C@H](NCc1ccccc1-c1ccncc1)C(=O)O` [Example 56, (2S)-5,5-dimethyl-2-({[2-(pyridin-4-yl)phenyl]methyl}amino)hexanoic acid] it was 1910 nM.
For `CC(C)(C)CC[C@H](NCc1cccc(-n2ccnc2)c1)C(=O)O` [Example 57, (2S)-2-({[3-(1H-imidazol-1-yl)phenyl]methyl}amino)-5,5-dimethylhexanoic acid] the value was 1290 nM.
For `CC(C)(C)CC[C@H](NCc1ccncc1)C(=O)O` [Example 58, (2S)-5,5-dimethyl-2-{[(pyridin-4-yl)methyl]amino}hexanoic acid] the value was 810 nM; for `CC(C)(C)CC[C@H](NCc1ccccc1CO)C(=O)O` [Example 59, (S)-2-((2-(hydroxymethyl)benzyl)amino)-5,5-dimethylhexanoic acid hydrochloride], 1280 nM; for `Cn1ncc2c(CN[C@@H](CCC(C)(C)C)C(=O)O)cccc21` [Example 61, (2S)-5,5-dimethyl-2-{[(1-methyl-1H-indazol-4-yl)methyl]amino}hexanoic acid], 2830 nM.
On to `CC(C)(C)CC[C@H](NCc1cccc2[nH]ccc12)C(=O)O` [Example 62, (2S)-2-{[(1H-indol-4-yl)methyl]amino}-5,5-dimethylhexanoic acid], for which the IC50 was > 9980 nM.
For `Cn1ccc2ccc(CN[C@@H](CCC(C)(C)C)C(=O)O)cc21` [Example 67] the value was 3310 nM; for `Cn1ccc2cccc(CN[C@@H](CCC(C)(C)C)C(=O)O)c21` [Example 68], 1200 nM.
`CC(C)(C)CC[C@H](NCc1cccnc1)C(=O)O` [Example 71, (2S)-5,5-dimethyl-2-{[(pyridin-3-yl)methyl]amino}hexanoic acid] had an IC50 of 1130 nM.
For `Cc1ccc(CN[C@@H](CCC(C)(C)C)C(=O)O)cn1` [Example 72] the value was 1240 nM; for `CC(C)(C)CC[C@H](NCc1ccc(Cl)cc1)C(=O)O` [Example 76, (2S)-2-{[(4-chlorophenyl)methyl]amino}-5,5-dimethylhexanoic acid], 790 nM.
For `CC(C)(C)CC[C@H](NCc1cncc(Br)c1)C(=O)O` [Example 77, (2S)-2-{[(5-bromopyridin-3-yl)methyl]amino}-5,5-dimethylhexanoic acid] the value was 600 nM; for `COc1ccc(CN[C@@H](CCC(C)(C)C)C(=O)O)c2ccccc12` [Example 79], 950 nM.
In the case of `CC(C)(C)CC[C@H](NCc1cncc2ccccc12)C(=O)O` [Example 80] it was 790 nM; in that of `CC(C)(C)CC[C@H](NCc1cccc2cnccc12)C(=O)O` [Example 81], 790 nM.
